Reference: patent publication US7977352B2, “Triazolopyridine compounds useful for the treatment of degenerative and inflammatory diseases” (Galapagos NV, priority 2006, dated 2011)

Tests used:
[1] = tested on: MMP1 expression by activated synovial fibroblasts (RASFs); assay: MMP assay: MMP1 expression by RASFs triggered with TNF-α (MMP1 ELISA); format: cell-based; conditions: Fibroblast, 48 h, TNF-α trigger 10 ng/mL, semi-quantitative score, read-out: REDUCTION MMP1/TNFa
Description: A 384-well format ELISA for measurement of MMP1 is developed. Various primary antibodies are tested, as well as various ELISA protocols. The following protocol is developed and validated to measure MMP1 levels in SF supernatant in 384 well plates: white Lumitrac 600 384 well plates (Greiner) are coated with 2 μg/mL anti-MMP1 antibody MAB1346 (Chemicon). The antibody is diluted in buffer 40 (1.21 g Tris base (Sigma), 0.58 g NaCl (Calbiochem) and 5 mL 10% NaN3 (Sigma) in 1 L milliQ water and adjusted to pH 8.5). After overnight incubation at 4° C., plates are washed with PBS (80 g NaCl, 2 g KCl (Sigma), 11.5 g Na2HPO4.7H2O and 2 g KH2PO4 in 10 L milliQ; pH 7.4) and blocked with 100 μL/well Casein buffer (2% Casein (VWR International) in PBS). Next day, casein buffer is removed from ELISA plates and replaced by 50 μL/well EC buffer (4 g casein, 2.13 g Na2HPO4 (Sigma), 2 g bovine albumin (Sigma), 0.69 g NaH2PO4.H2O (Sigma), 0.5 g CHAPS (Roche), 23.3 g NaCl, 4 mL 0.5 M EDTA pH 8 (Invitrogen), 5 mL 10% NaN3 in 1 L milliQ and adjusted to pH 7.0). 0.25 mM DTT (Sigma) is added to the thawed sample plates. After removal of the EC buffer, 20 μL of sample is transferred to the ELISA plates. After overnight incubation at 4° C. plates are washed twice with PBS and once with PBST (PBS with 0.05% Tween-20 (Sigma)) and incubated with 35 μL/well biotinylated anti-MMP1 antibody solution (R&D). This secondary antibody is diluted in buffer C (0.82 g NaH2PO4.H2O, 4.82 g Na2HPO4, 46.6 g NaCl, 20 g bovine albumin and 4 mL 0.5M EDTA pH 8 in 2 L milliQ and adjusted to pH 7.0) at a concentration of 5 μg/mL. After 2 h of incubation at RT, plates are washed as described above and incubated with 50 μL/well streptavidin-HRP conjugate (Biosource). Streptavidin-HRP conjugate is diluted in buffer C at a concentration of 0.25 μg/mL. After 45 min, plates are washed as described above and incubated for 5 min with 50 μL/well BM Chem ELISA Substrate (Roche). Readout is performed on the Luminoscan Ascent Luminometer (Labsystems) with an integration time of 200 msec or with an Envision reader (Perkin Elmer).
SFs were acquired at passage 1 from a commercial supplier (Cell applications, Inc.). SFs are cultured in DMEM supplemented with 10% heat-inactivated FBS, 1× penicillin/streptomycin (Invitrogen) at 37° C., 10% CO2 until passage 6. Aliquots of the cells are frozen and cryopreserved in liquid nitrogen. Starting from a cryopreserved aliquot, cells are further expanded by sub-culturing cells at 1/3 ratio every week. Cells between passage 10 and 12 are routinely used in compound testing according to following protocol.
Starting from the compound master stocks (all at 10 mM concentration in 100% DMSO) a 3-fold serial dilution is made in 96-well plates in 100% DMSO. Then, plates are further diluted 45-fold in M199 medium supplemented with 1% heat-inactivated FBS to obtain a intermediate work stock.
At day 1, RASFs are seeded in 96 well plates (flat bottom, tissue culture treated, Greiner) at a density of 3000 cells/well in complete synovial growth medium (Cell Applications). Day 5, the medium is completely removed from the cells, and replaced by 81 μL of M199 medium supplemented with 1% heat-inactivated FBS followed by addition of 10 μL compound out of the intermediate work stock. After an incubation period of 90 minutes, which allows the compounds to equilibrate and enter the cells, cells are stimulated with either TNF-α or ‘complex trigger’. TNF-α trigger is added in a volume of […] to obtain final concentration of 10 ng/mL. For that, TNF-α stock (PeproTech) at 10 μg/mL was diluted to 100 ng/mL TNF-a in M199 medium supplemented with 1% FBS. ‘Complex trigger’ mix is added in a volume of 20 μL to obtain a final concentration of 12.5%. For that, ‘complex trigger’ mix, is diluted to 80% with M199 medium supplemented with 1% FBS. […]

TAK1-TAB1 fusion protein = target: T1, TAK1-TAB1 fusion protein (Homo sapiens, UniProt O43318); assay: In vitro TAK1 kinase assay; format: biochemical; conditions: casein substrate, [33P]-γ-ATP, 90 minutes at 30° C., semi-quantitative score, read-out: POTENCY TAK1 (MAP3K7)
T1 construct: purchased Upstate 14-600
T1 sequence (O43318 with tags, fused parts or gaps limits assumed): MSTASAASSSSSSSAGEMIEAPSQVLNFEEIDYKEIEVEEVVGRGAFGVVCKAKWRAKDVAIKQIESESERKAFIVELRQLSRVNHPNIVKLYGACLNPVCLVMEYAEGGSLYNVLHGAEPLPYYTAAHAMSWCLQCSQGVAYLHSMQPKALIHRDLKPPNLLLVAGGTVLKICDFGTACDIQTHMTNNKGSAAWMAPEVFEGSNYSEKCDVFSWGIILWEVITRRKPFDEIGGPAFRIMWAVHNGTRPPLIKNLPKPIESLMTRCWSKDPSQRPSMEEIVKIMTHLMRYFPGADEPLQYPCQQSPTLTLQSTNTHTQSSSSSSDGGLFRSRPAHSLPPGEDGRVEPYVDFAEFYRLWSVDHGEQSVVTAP
Description: For assessing TAK1 inhibition, active TAK1-TAB1 fusion protein was used from Upstate (Cat. No, 14-600). Kinase reactions are set up in 96-well polypropylene plates in 25 μL containing 0.5 mU TAK1-TAB1 fusion protein, 5mM ATP, 0.01 μCi/μL [^33P]-γ-ATP, 0.1 mg/mL casein substrate in 1× reaction buffer containing 10 mM MOPS pH 7.0, 1 mM EDTA.
Starting from the compound master stocks (all at 10 mM concentration in 100% DMSO) a 3-fold serial dilution is made in 96-well plates in 100% DMSO. Plates are further diluted […] in H2O containing 3.5% DMSO, to obtain an intermediate work stock with compounds at 5× the final assay concentration in 5% DMSO.
5 μL of the intermediate stock is transferred into V-bottom 96 well polypropylene plates and 11 μL of Enzyme mix is added. Enzyme mix is made by combining 5 μL 5× reaction buffer ([…] pH 7.0, 1 mM EDTA), 5 μL casein (Sigma) diluted in H20 to 0.5 mg/mL and 1 μL of TAK1-TAB1 fusion protein that was prediluted to 0.5 mU/μL in 1× enzyme dilution buffer (20 mM MOPS pH 7.0, 0.1 mM EDTA, 0.01% Brij-35, 5% glycerol, 1 mM DTT, 1 mg/ml BSA).
The reactions are started by the addition of 9 μL of mixture containing ATP (20.83 uM) and [^33P]-γ-ATP (0.028 μCi/μL).
The assay is stopped 90 minutes after incubation at 30° C. by the addition of 25 μL phosphoric acid (150 mM). The label incorporated into the casein substrate is separated from labeled unincorporated ATP by filtration onto 96-well filter plates using a harvester device. After 6 washes with 75 mM phosphoric acid, the bottom of the filter plates are sealed, and incorporated label is quantified after addition of 40 μL scintillation fluid using TopCount.

| SMILES | IC50 (TAK1-TAB1 fusion protein) | IC50 [1] |
| --- | --- | --- |
| C[C@@H]1CN(C)[C@@H](C)CN1c1ccc(Nc2ccc(-c3cc[nH]c(=O)c3)n3ncnc23)cc1 (racemic) [Example 10, rel-4-[8-({4-[(2R,5S)-2,4,5-trimethylpiperazin-1-yl]phenyl}amino)[1,2,4]triazolo[1,5-a]pyridin-5-yl]pyridin-2(1H)-one] | < 0.5 µM | 0.501 to 1 µM |
| C[C@@H]1CN(C)[C@@H](C)CN1c1ccc(Nc2ccc(-c3cc[nH]c(=O)c3)n3ncnc23)cc1F (relative stereo) [Example 11, rel-4-[8-({3-fluoro-4-[(2R,5S)-2,4,5-trimethylpiperazin-1-yl]phenyl}amino)[1,2,4]triazolo[1,5-a]pyridin-5-yl]pyridin-2(1H)-one] | < 0.5 µM | 1 to 5 µM |
| CCN1CCN(c2ccc(Nc3ccc(-c4ccc(C(N)=O)cc4)n4ncnc34)cc2)CC1 [Example 12, 4-(8-{[4-(4-ethylpiperazin-1-yl)phenyl]amino}[1,2,4]triazolo[1,5-a]pyridin-5-yl)benzamide] | < 0.5 µM | < 0.5 µM |
| CCCN1CCN(c2ccc(Nc3ccc(-c4ccc(C(N)=O)cc4)n4ncnc34)cc2)CC1 [Example 13, 4-(8-{[4-(4-propylpiperazin-1-yl)phenyl]amino}[1,2,4]triazolo[1,5-a]pyridin-5-yl)benzamide] | < 0.5 µM | > 10 µM |
| CCC(CC)N1CCN(c2ccc(Nc3ccc(-c4ccc(C(N)=O)cc4)n4ncnc34)cc2)CC1 [Example 14, 4-[8-({4-[4-(1-ethylpropyl)piperazin-1-yl]phenyl}amino)[1,2,4]triazolo[1,5-a]pyridin-5-yl]benzamide] | < 0.5 µM | > 10 µM |
| CC(C)CCN1CCN(c2ccc(Nc3ccc(-c4ccc(C(N)=O)cc4)n4ncnc34)cc2)CC1 [Example 15, 4-[8-({4-[4-(3-methylbutyl)piperazin-1-yl]phenyl}amino)[1,2,4]triazolo[1,5-a]pyridin-5-yl]benzamide] | < 0.5 µM | 1 to 5 µM |
| NC(=O)c1ccc(-c2ccc(Nc3ccc(N4CCN(C5CC5)CC4)cc3)c3ncnn23)cc1 [Example 18, 4-(8-{[4-(4-cyclopropylpiperazin-1-yl)phenyl]amino}[1,2,4]triazolo[1,5-a]pyridin-5-yl)benzamide] | 1 to 5 µM | 1 to 5 µM |
| CCCN1CCN(c2ccc(Nc3ccc(-c4cc[nH]c(=O)c4)n4ncnc34)cc2)CC1 [Example 20, 4-(8-{[4-(4-propylpiperazin-1-yl)phenyl]amino}[1,2,4]triazolo[1,5-a]pyridin-5-yl)pyridin-2(1H)-one] | < 0.5 µM | 1 to 5 µM |
| O=c1cc(-c2ccc(Nc3ccc(N4CCN(C5CC5)CC4)cc3)c3ncnn23)cc[nH]1 [Example 23, 4-(8-{[4-(4-cyclopropylpiperazin-1-yl)phenyl]amino}[1,2,4]triazolo[1,5-a]pyridin-5-yl)pyridin-2(1H)-one] | < 0.5 µM | 1 to 5 µM |
| O=c1cc(-c2ccc(Nc3ccc(N4CCN(C5CCCCC5)CC4)cc3)c3ncnn23)cc[nH]1 [Example 25, 4-(8-{[4-(4-cyclohexylpiperazin-1-yl)phenyl]amino}[1,2,4]triazolo[1,5-a]pyridin-5-yl)pyridin-2(1H)-one] | < 0.5 µM | 1 to 5 µM |

Now from value to molecule, other results behind:

| IC50 (TAK1-TAB1 fusion protein) | SMILES | IC50 [1] |
| --- | --- | --- |
| 0.501 to 1 µM | C[C@@H]1CN(c2ccc(Nc3ccc(-c4cc[nH]c(=O)c4)n4ncnc34)cc2F)C[C@H](C)N1C [Example 9, 4-[8-({3-fluoro-4-[(3R,5S)-3,4,5-trimethylpiperazin-1-yl]phenyl}amino)[1,2,4]triazolo[1,5-a]pyridin-5-yl]pyridin-2(1H)-one] | 1 to 5 µM |
| < 0.5 µM | NC(=O)c1ccc(-c2ccc(Nc3ccc(N4CCN(C5CCC5)CC4)cc3)c3ncnn23)cc1 [Example 16, 4-(8-{[4-(4-cyclobutylpiperazin-1-yl)phenyl]amino}[1,2,4]triazolo[1,5-a]pyridin-5-yl)benzamide] | 5 to 10 µM |
| < 0.5 µM | CCN1CCN(c2ccc(Nc3ccc(-c4cc[nH]c(=O)c4)n4ncnc34)cc2)CC1 [Example 19, 4-(8-{[4-(4-ethylpiperazin-1-yl)phenyl]amino}[1,2,4]triazolo[1,5-a]pyridin-5-yl)pyridin-2(1H)-one] | 1 to 5 µM |
| < 0.5 µM | CCC(CC)N1CCN(c2ccc(Nc3ccc(-c4cc[nH]c(=O)c4)n4ncnc34)cc2)CC1 [Example 21, 4-[8-({4-[4-(1-ethylpropyl)piperazin-1-yl]phenyl}amino)[1,2,4]triazolo[1,5-a]pyridin-5-yl]pyridin-2(1H)-one] | > 10 µM |
| < 0.5 µM | CC(C)CCN1CCN(c2ccc(Nc3ccc(-c4cc[nH]c(=O)c4)n4ncnc34)cc2)CC1 [Example 22, 4-[8-({4-[4-(3-methylbutyl)piperazin-1-yl]phenyl}amino)[1,2,4]triazolo[1,5-a]pyridin-5-yl]pyridin-2(1H)-one] | 1 to 5 µM |
| < 0.5 µM | O=c1cc(-c2ccc(Nc3ccc(N4CCN(C5CCC5)CC4)cc3)c3ncnn23)cc[nH]1 [Example 24, 4-(8-{[4-(4-cyclobutylpiperazin-1-yl)phenyl]amino}[1,2,4]triazolo[1,5-a]pyridin-5-yl)pyridin-2(1H)-one] | 1 to 5 µM |
